Assay results from the supplement of paper PMC11208160.

Assay: recombinant UMI read abundance after kanamycin selection (control-corrected) (log10(CPM+1)); higher = more efficient recombination; extreme values may be limits of the assay; sequences stand for … in AGTGCAGAGAAAATCGGCCAGTTTTCTCTGCCTGCAGTCCGCATGCCGTGGGACCCCTTGGGTTCTAACCTGTTGCCTAGATTTATGCAGCGGACTGCCTTTCTCCCAAAGTGATAAACCGG…AGGTTGGTTTCACT; site = the 11-nt donor
Procedure, shortened: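 Values are reported as log10(CPM+1), obtained by converting sequencing counts to CPM, averaging replicates and scaling by control-derived factors. The counts came from recombinant UMIs amplified by PCR across the donor–target junction. These UMIs came from a pooled Escherichia coli screen of donor and donor-binding-loop pairs for the IS621 bridge recombinase, plated with IPTG (0.07 mM) plus kanamycin or left unselected, in two replicates each.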
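Also: IS621 bridge recombinase in Escherichia coli cells against a fixed T5 target plasmid.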

Row | Sequence | recombinant UMI read abundance (log10)
1 | TCATACTCATGGACCGGTTTTCCCGGTAATCCGTATTTGCA (site CCATACTCTTG) | 2.03
2 | TCATACTCATGGACCGGTTTTCCCGGTAATCCGTATTTGCA (site GCATACTCTTG) | 1.3
3 | TCATACTCATGGACCGGTTTTCCCGGTAATCCGTATTTGCA (site TAATACTCTTG) | 1.45
4 | TCATACTCATGGACCGGTTTTCCCGGTAATCCGTATTTGCA (site TCAAACTCTTG) | 1.19
5 | TCATACTCATGGACCGGTTTTCCCGGTAATCCGTATTTGCA (site TCACACTCTTG) | 1.3
6 | TCATACTCATGGACCGGTTTTCCCGGTAATCCGTATTTGCA (site TCAGACTCTTG) | 0
7 | TCATACTCATGGACCGGTTTTCCCGGTAATCCGTATTTGCA (site TCATAATCTTG) | 0.464
8 | TCATACTCATGGACCGGTTTTCCCGGTAATCCGTATTTGCA (site TCATACACTTG) | 0.64
9 | TCATACTCATGGACCGGTTTTCCCGGTAATCCGTATTTGCA (site TCATACCCTTG) | 0.303
10 | TCATACTCATGGACCGGTTTTCCCGGTAATCCGTATTTGCA (site TCATACGCTTG) | 0.00277
11 | TCATACTCATGGACCGGTTTTCCCGGTAATCCGTATTTGCA (site TCATACTCTAG) | 0
12 | TCATACTCATGGACCGGTTTTCCCGGTAATCCGTATTTGCA (site TCATACTCTCG) | 0.514
13 | TCATACTCATGGACCGGTTTTCCCGGTAATCCGTATTTGCA (site TCATACTCTGG) | 0
14 | TCATACTCATGGACCGGTTTTCCCGGTAATCCGTATTTGCA (site TCATACTCTTA) | 0
15 | TCATACTCATGGACCGGTTTTCCCGGTAATCCGTATTTGCA (site TCATACTCTTC) | 0.0158
16 | TCATACTCATGGACCGGTTTTCCCGGTAATCCGTATTTGCA (site TCATACTCTTG) | 2.69
17 | TCATACTCATGGACCGGTTTTCCCGGTAATCCGTATTTGCA (site TCATACTCTTT) | 0.0879
18 | TCATACTCATGGACCGGTTTTCCCGGTAATCCGTATTTGCA (site TCATAGTCTTG) | 1.54
19 | TCATACTCATGGACCGGTTTTCCCGGTAATCCGTATTTGCA (site TCATATTCTTG) | 0
20 | TCATACTCATGGACCGGTTTTCCCGGTAATCCGTATTTGCA (site TCATCCTCTTG) | 0.111
21 | TCATACTCATGGACCGGTTTTCCCGGTAATCCGTATTTGCA (site TCATGCTCTTG) | 0
22 | TCATACTCATGGACCGGTTTTCCCGGTAATCCGTATTTGCA (site TCATTCTCTTG) | 0
23 | TCATACTCATGGACCGGTTTTCCCGGTAATCCGTATTTGCA (site TCCTACTCTTG) | 1.79

Row | Sequence | recombinant UMI read abundance (log10)
24 | TCATACTCATGGACCGGTTTTCCCGGTAATCCGTATTTGCA (site TCGTACTCTTG) | 2.35
25 | TCATACTCATGGACCGGTTTTCCCGGTAATCCGTATTTGCA (site TCTTACTCTTG) | 2.13
26 | TCATACTCATGGACCGGTTTTCCCGGTAATCCGTATTTGCA (site TGATACTCTTG) | 1.78
27 | TCATACTCATGGACCGGTTTTCCCGGTAATCCGTATTTGCA (site TTATACTCTTG) | 1.2
28 | TCATACTCATGGACCGGTTTTCCCGGTAATCCGTATTTGCC (site TCATACTCTAG) | 1.07
29 | TCATACTCATGGACCGGTTTTCCCGGTAATCCGTATTTGCC (site TCATACTCTCG) | 0
30 | TCATACTCATGGACCGGTTTTCCCGGTAATCCGTATTTGCC (site TCATACTCTGG) | 2.23
31 | TCATACTCATGGACCGGTTTTCCCGGTAATCCGTATTTGCC (site TCATACTCTTG) | 0
32 | TCATACTCATGGACCGGTTTTCCCGGTAATCCGTATTTGCT (site TCATACTCTAG) | 2.47
33 | TCATACTCATGGACCGGTTTTCCCGGTAATCCGTATTTGCT (site TCATACTCTCG) | 0
34 | TCATACTCATGGACCGGTTTTCCCGGTAATCCGTATTTGCT (site TCATACTCTGG) | 0
35 | TCATACTCATGGACCGGTTTTCCCGGTAATCCGTATTTGCT (site TCATACTCTTG) | 0
36 | TCATATACATGGACCGGTTTTCCCGGTAATCCGTATTTGCA (site TCATATACTTG) | 0.743
37 | TCATATACATGGACCGGTTTTCCCGGTAATCCGTATTTGGA (site TCATATACTTC) | 0.727
38 | TCATCGGCATGGACCGGTTTTCCCGGTAATCCGTATTTGAG (site TCATCGGCTCT) | 0.699
39 | TCATCTACATGGACCGGTTTTCCCGGTAATCCGTATTTGTG (site ACATCTACTCA) | 0.0432
40 | TCATCTACATGGACCGGTTTTCCCGGTAATCCGTATTTGTG (site CCATCTACTCA) | 0.00835
41 | TCATCTACATGGACCGGTTTTCCCGGTAATCCGTATTTGTG (site GCATCTACTCA) | 0.0109
42 | TCATCTACATGGACCGGTTTTCCCGGTAATCCGTATTTGTG (site TCATCTACTCA) | 0.00873
43 | TCATGGTCATGGACCGGTTTTCCCGGTAATCCGTATTTGTT (site TCATGGTCTAA) | 0.48
44 | TCCAAAGCATGGACCGGTTTTCCCGGTAATCCGTATTTGAC (site GTACCGCCTAG) | 0
45 | TCCAACTCATGGACCGGTTTTCCCGGTAATCCGTATTTGCC (site TCCAAATCTGG) | 0
46 | TCCAACTCATGGACCGGTTTTCCCGGTAATCCGTATTTGCC (site TCCAACTCTGG) | 0

Row | Sequence | recombinant UMI read abundance (log10)
47 | TCCAACTCATGGACCGGTTTTCCCGGTAATCCGTATTTGCC (site TCCAAGTCTGG) | 0
48 | TCCAACTCATGGACCGGTTTTCCCGGTAATCCGTATTTGCC (site TCCAATTCTGG) | 0
49 | TCCAATTCATGGACCGGTTTTCCCGGTAATCCGTATTTGCC (site ACCAATTCTGG) | 0
50 | TCCAATTCATGGACCGGTTTTCCCGGTAATCCGTATTTGCC (site CCCAATTCTGG) | 0
51 | TCCAATTCATGGACCGGTTTTCCCGGTAATCCGTATTTGCC (site GCCAATTCTGG) | 0
52 | TCCAATTCATGGACCGGTTTTCCCGGTAATCCGTATTTGCC (site TACAATTCTGG) | 0
53 | TCCAATTCATGGACCGGTTTTCCCGGTAATCCGTATTTGCC (site TCAAATTCTGG) | 0
54 | TCCAATTCATGGACCGGTTTTCCCGGTAATCCGTATTTGCC (site TCCAAATCTGG) | 0
55 | TCCAATTCATGGACCGGTTTTCCCGGTAATCCGTATTTGCC (site TCCAACTCTGG) | 0
56 | TCCAATTCATGGACCGGTTTTCCCGGTAATCCGTATTTGCC (site TCCAAGTCTGG) | 0
57 | TCCAATTCATGGACCGGTTTTCCCGGTAATCCGTATTTGCC (site TCCAATACTGG) | 0
58 | TCCAATTCATGGACCGGTTTTCCCGGTAATCCGTATTTGCC (site TCCAATCCTGG) | 0
59 | TCCAATTCATGGACCGGTTTTCCCGGTAATCCGTATTTGCC (site TCCAATGCTGG) | 0
60 | TCCAATTCATGGACCGGTTTTCCCGGTAATCCGTATTTGCC (site TCCAATTCTAG) | 0
61 | TCCAATTCATGGACCGGTTTTCCCGGTAATCCGTATTTGCC (site TCCAATTCTCG) | 0
62 | TCCAATTCATGGACCGGTTTTCCCGGTAATCCGTATTTGCC (site TCCAATTCTGC) | 0
63 | TCCAATTCATGGACCGGTTTTCCCGGTAATCCGTATTTGCC (site TCCAATTCTGG) | 0
64 | TCCAATTCATGGACCGGTTTTCCCGGTAATCCGTATTTGCC (site TCCAATTCTGT) | 0
65 | TCCAATTCATGGACCGGTTTTCCCGGTAATCCGTATTTGCC (site TCCAATTCTTG) | 0
66 | TCCAATTCATGGACCGGTTTTCCCGGTAATCCGTATTTGCC (site TCCACTTCTGG) | 0
67 | TCCAATTCATGGACCGGTTTTCCCGGTAATCCGTATTTGCC (site TCCAGTTCTGG) | 0
68 | TCCAATTCATGGACCGGTTTTCCCGGTAATCCGTATTTGCC (site TCCATTTCTGG) | 0
